Results as given in US11470846B2, “Herbicidal pyridino-/pyrimidino-thiazoles” (SYNGENTA PARTICIPATIONS AG, priority 2014, dated 2022).

Columns and labels:
Assay type in all cases: in vivo
[1] = tested on: Triticum aestivium (TRZAW); experiment: Post-emergence herbicidal activity; settings: post-emergence application, 1000 g/Ha, evaluated after 13 days, scale 0-5
Description: (§1) B2 Post-Emergence Herbicidal Activity
(§2) Seeds of a variety of test species were sown in standard soil in pots: Triticum aestivium (TRZAW), Oryza sativa (ORYSA), Avena fatua (AVEFA), Alopecurus myosuroides (ALOMY), Echinochloa crus-galli (ECHCG), Lolium perenne (LOLPE), Zea Mays (ZEAMX), Abutilon theophrasti (ABUTH), Amaranthus retroflexus (AMARE) and Setaria faberi (SETFA). After 8 days cultivation (post-emergence) under controlled conditions in a glasshouse (at 24/16° C., day/night; 14 hours light; 65% humidity), the plants were sprayed with an aqueous spray solution derived from the formulation of the technical active ingredient in acetone/water (50:50) solution containing 0.5% Tween 20 (polyoxyethelyene sorbitan monolaurate, CAS RN 9005-64-5). The test plants were then grown in a glasshouse under controlled conditions (at 24/16° C., day/night; 14 hours light; 65% humidity) and watered twice daily. After 13 days, the test was evaluated (5=total damage to plant; 0=no damage to plant).

[2] = tested on: Alopecurus myosuroides (ALOMY); experiment: Post-emergence herbicidal activity; settings: post-emergence application, 1000 g/Ha, evaluated after 13 days, scale 0-5
Description: as §1, §2

Avena fatua (AVEFA) [3] = experiment: Post-emergence herbicidal activity; settings: post-emergence application, 1000 g/Ha, evaluated after 13 days, scale 0-5
Description: as §1, §2

[4] = tested on: Echinochloa crus-galli (ECHCG); experiment: Post-emergence herbicidal activity; settings: post-emergence application, 1000 g/Ha, evaluated after 13 days, scale 0-5; Table 7
Description: as §1, §2

Oryza sativa (ORYSA) [5] = experiment: Post-emergence herbicidal activity; settings: post-emergence application, 1000 g/Ha, evaluated after 13 days, scale 0-5
Description: as §1, §2

Lolium perenne (LOLPE) [6] = experiment: Post-emergence herbicidal activity; settings: post-emergence application, 1000 g/Ha, evaluated after 13 days, scale 0-5; Table 7
Description: as §1, §2

[7] = tested on: Triticum aestivium (TRZAW); experiment: Pre-emergence herbicidal activity; settings: pre-emergence application, 1000 g/Ha, evaluated after 13 days, scale 0-5
Description: (§3) B1 Pre-Emergence Herbicidal Activity
as §2, with “After” for “After 8 days”, “for one day (pre-emergence)” for “(post-emergence)”

[8] = tested on: Alopecurus myosuroides (ALOMY); experiment: Pre-emergence herbicidal activity; settings: pre-emergence application, 1000 g/Ha, evaluated after 13 days, scale 0-5
Description: as §3
as §2, with “After” for “After 8 days”, “for one day (pre-emergence)” for “(post-emergence)”

Avena fatua (AVEFA) [9] = experiment: Pre-emergence herbicidal activity; settings: pre-emergence application, 1000 g/Ha, evaluated after 13 days, scale 0-5
Description: as §3
as §2, with “After” for “After 8 days”, “for one day (pre-emergence)” for “(post-emergence)”

[10] = tested on: Echinochloa crus-galli (ECHCG); experiment: Pre-emergence herbicidal activity; settings: pre-emergence application, 1000 g/Ha, evaluated after 13 days, scale 0-5; Table 5
Description: as §3
as §2, with “After” for “After 8 days”, “for one day (pre-emergence)” for “(post-emergence)”

Oryza sativa (ORYSA) [11] = experiment: Pre-emergence herbicidal activity; settings: pre-emergence application, 1000 g/Ha, evaluated after 13 days, scale 0-5
Description: as §3
as §2, with “After” for “After 8 days”, “for one day (pre-emergence)” for “(post-emergence)”

Lolium perenne (LOLPE) [12] = experiment: Pre-emergence herbicidal activity; settings: pre-emergence application, 1000 g/Ha, evaluated after 13 days, scale 0-5; Table 5
Description: as §3
as §2, with “After” for “After 8 days”, “for one day (pre-emergence)” for “(post-emergence)”

| Structure (SMILES) | Control of weed species, TRZAW (damage score) [1] | Control of weed species, ALOMY (damage score) [2] | Control of weed species, AVEFA (damage score) (Avena fatua (AVEFA) [3]) | Control of weed species, ECHCG (damage score) [4] | Control of weed species, ORYSA (damage score) (Oryza sativa (ORYSA) [5]) | Control of weed species, LOLPE (damage score) (Lolium perenne (LOLPE) [6]) | Control of weed species, TRZAW (damage score) [7] | Control of weed species, ALOMY (damage score) [8] | Control of weed species, AVEFA (damage score) (Avena fatua (AVEFA) [9]) | Control of weed species, ECHCG (damage score) [10] | Control of weed species, ORYSA (damage score) (Oryza sativa (ORYSA) [11]) | Control of weed species, LOLPE (damage score) (Lolium perenne (LOLPE) [12]) |
| --- | --- | --- | --- | --- | --- | --- | --- | --- | --- | --- | --- | --- |
| Cc1nc(-c2cccnc2)sc1N(C)C(=O)OC(C)(C)C [Compound A1, tert-butyl N-methyl-N-[4-methyl-2-(3-pyridyl)thiazol-5-yl]carbamate] | 0 | 0 | 4 | 4 | 1 | 4 | 2 | 2 | 4 | 4 | 2 | 2 |
| Cc1nc(-c2cncnc2)sc1N(C)C(=O)OC(C)(C)C [Compound A2, tert-butyl N-methyl-N-(4-methyl-2-pyrimidin-5-yl-thiazol-5-yl)carbamate] | 1 | 1 | 5 | 5 | 1 | 3 | 0 | 0 | 3 | 5 | 1 | 2 |
| Cc1nc(-c2cncc(F)c2)sc1N(C)C(=O)OC(C)(C)C [Compound A3, tert-butyl N-[2-(5-fluoro-3-pyridyl)-4-methyl-thiazol-5-yl]-N-methyl-carbamate] | 1 | 1 | 4 | 5 | 1 | 3 | 1 | 1 | 3 | 4 | 1 | 2 |
| Cc1nc(-c2cncc(Cl)c2)sc1N(C)C(=O)OC(C)(C)C [Compound A4] | 1 | 0 | 5 | 4 | 1 | 2 | 0 | 1 | 4 | 4 | 0 | 2 |
| Cc1nc(-c2cncc(C=O)c2)sc1N(C)C(=O)OC(C)(C)C [Compound A5] | 0 | 0 | 0 | 0 | 0 | 0 | 0 | 0 | 0 | 0 | 0 | 0 |
| COc1cncc(-c2nc(C)c(N(C)C(=O)OC(C)(C)C)s2)c1 [Compound A6] | 1 | 1 | 2 | 4 | 0 | 2 | 0 | 1 | 0 | 2 | 1 | 1 |
